{"source": "patent US20240060999A1", "about": "“BLOOD COAGULATION INSPECTION METHOD” (FUJIMORI KOGYO CO., LTD, priority 2020, published 2024)", "tested_on": "whole blood", "test": "ROTEM whole blood coagulation with rabbit brain-derived tissue thromboplastin (TP) + Ca 12 mM (CTI 20 μg/mL, PKSI-527 40 μM where stated)", "type": "cell-based", "key": {"[1]": {"details": "Ex11, TP 16.6 μg/mL+Ca+CTI+PKSI-527, heparan sulfate 1 μg/mL, no rTM"}, "[2]": {"details": "Ex11, TP 16.6 μg/mL+Ca+CTI+PKSI-527, heparan sulfate 1 μg/mL, rTM 50 μM (title: 50 nM)"}, "[3]": {"details": "Ex11, TP 16.6 μg/mL+Ca+CTI+PKSI-527, heparan sulfate 3 μg/mL, no rTM"}, "[4]": {"details": "Ex11, TP 16.6 μg/mL+Ca+CTI+PKSI-527, heparan sulfate 3 μg/mL, rTM 50 μM (title: 50 nM)"}, "[5]": {"details": "Ex11, TP 16.6 μg/mL+Ca+CTI+PKSI-527, heparan sulfate 10 μg/mL, no rTM"}, "[6]": {"details": "Ex11, TP 16.6 μg/mL+Ca+CTI+PKSI-527, heparan sulfate 10 μg/mL, rTM 50 μM (title: 50 nM)"}, "[7]": {"details": "Ex11, TP 16.6 μg/mL+Ca+CTI+PKSI-527, heparan sulfate 15 μg/mL, no rTM"}, "[8]": {"details": "Ex11, TP 16.6 μg/mL+Ca+CTI+PKSI-527, heparan sulfate 15 μg/mL, rTM 50 μM (title: 50 nM)"}, "[9]": {"details": "Ex11, TP 16.6 μg/mL+Ca+CTI+PKSI-527, heparan sulfate 20 μg/mL, no rTM"}, "[10]": {"details": "Ex11, TP 16.6 μg/mL+Ca+CTI+PKSI-527, heparan sulfate 20 μg/mL, rTM 50 μM (title: 50 nM)"}, "[11]": {"details": "Ex11, TP 16.6 μg/mL+Ca+CTI+PKSI-527, heparan sulfate 30 μg/mL, no rTM"}, "[12]": {"details": "Ex11, TP 16.6 μg/mL+Ca+CTI+PKSI-527, heparan sulfate 30 μg/mL, rTM 50 μM (title: 50 nM)"}, "[13]": {"details": "Ex12, TP 16.6 μg/mL+Ca+CTI+PKSI-527, heparan sulfate 5 μg/mL, no rTM"}, "[14]": {"details": "Ex12, TP 16.6 μg/mL+Ca+CTI+PKSI-527, heparan sulfate 5 μg/mL, rTM 100 μM (title: 100 nM)"}, "[15]": {"details": "Ex13, TP 0.033 μg/mL+Ca+CTI+PKSI-527, heparan sulfate 0.5 μg/mL, no rTM"}, "[16]": {"details": "Ex13, TP 0.033 μg/mL+Ca+CTI+PKSI-527, heparan sulfate 0.5 μg/mL, rTM 9 μM (title: 9 nM)"}, "[17]": {"details": "Ex14, TP 0.033 μg/mL+Ca+CTI+PKSI-527, heparan sulfate 0.1 μg/mL, no rTM"}, "[18]": {"details": "Ex14, TP 0.033 μg/mL+Ca+CTI+PKSI-527, heparan sulfate 0.1 μg/mL, rTM 10 nM"}, "[19]": {"details": "Ex14, TP 0.033 μg/mL+Ca+CTI+PKSI-527, heparan sulfate 0.2 μg/mL, no rTM"}, "[20]": {"details": "Ex14, TP 0.033 μg/mL+Ca+CTI+PKSI-527, heparan sulfate 0.2 μg/mL, rTM 10 nM"}, "[21]": {"details": "Ex14, TP 0.033 μg/mL+Ca+CTI+PKSI-527, heparan sulfate 0.3 μg/mL, no rTM"}, "[22]": {"details": "Ex14, TP 0.033 μg/mL+Ca+CTI+PKSI-527, heparan sulfate 0.3 μg/mL, rTM 10 nM"}, "[23]": {"details": "Ex14, TP 0.033 μg/mL+Ca+CTI+PKSI-527, heparan sulfate 0.4 μg/mL, no rTM"}, "[24]": {"details": "Ex14, TP 0.033 μg/mL+Ca+CTI+PKSI-527, heparan sulfate 0.4 μg/mL, rTM 10 nM"}, "[25]": {"details": "Ex14, TP 0.033 μg/mL+Ca+CTI+PKSI-527, heparan sulfate 0.5 μg/mL, no rTM"}, "[26]": {"details": "Ex14, TP 0.033 μg/mL+Ca+CTI+PKSI-527, heparan sulfate 0.5 μg/mL, rTM 10 nM"}, "[27]": {"details": "Ex15, TP 0.033 μg/mL+Ca+CTI+PKSI-527, heparan sulfate 0.1 μg/mL, no rTM"}, "[28]": {"details": "Ex15, TP 0.033 μg/mL+Ca+CTI+PKSI-527, heparan sulfate 0.1 μg/mL, rTM 5 nM"}, "[29]": {"details": "Ex15, TP 0.033 μg/mL+Ca+CTI+PKSI-527, heparan sulfate 0.2 μg/mL, no rTM"}}, "data": [{"substance": "Heparan sulfate", "values": [{"measurement": "clotting time (CT)", "setting": "Ex3/Ex9, TP 0.9 μg/mL+Startem, heparan sulfate 1 μg/mL, rTM 20 nM", "result": 319, "unit": "s"}, {"measurement": "clotting time (CT)", "setting": "Ex4, TP 0.9 μg/mL+Ca+CTI+PKSI-527, heparan sulfate 1 μg/mL, no rTM", "result": 162, "unit": "s"}, {"measurement": "clotting time (CT)", "setting": "Ex9, TP 0.9 μg/mL+Startem, heparan sulfate 1 μg/mL, no rTM", "result": 154, "unit": "s"}, {"measurement": "clotting time (CT)", "setting": "Ex10, TP 0.45 μg/mL+Startem, heparan sulfate 1 μg/mL, no rTM", "result": 251, "unit": "s"}, {"measurement": "CFT (clot formation time)", "setting": "[1]", "result": 93, "unit": "s"}, {"measurement": "CT (clotting time)", "setting": "[1]", "result": 58, "unit": "s"}, {"measurement": "CFT (clot formation time)", "setting": "[2]", "result": 72, "unit": "s"}, {"measurement": "CT (clotting time)", "setting": "[2]", "result": 55, "unit": "s"}, {"measurement": "CFT (clot formation time)", "setting": "[3]", "result": 93, "unit": "s"}, {"measurement": "CT (clotting time)", "setting": "[3]", "result": 62, "unit": "s"}, {"measurement": "CFT (clot formation time)", "setting": "[4]", "result": 73, "unit": "s"}, {"measurement": "CT (clotting time)", "setting": "[4]", "result": 62, "unit": "s"}, {"measurement": "CFT (clot formation time)", "setting": "[5]", "result": 55, "unit": "s"}, {"measurement": "CT (clotting time)", "setting": "[5]", "result": 94, "unit": "s"}, {"measurement": "CFT (clot formation time)", "setting": "[6]", "result": 95, "unit": "s"}, {"measurement": "CT (clotting time)", "setting": "[6]", "result": 143, "unit": "s"}, {"measurement": "CFT (clot formation time)", "setting": "[7]", "result": 66, "unit": "s"}, {"measurement": "CT (clotting time)", "setting": "[7]", "result": 120, "unit": "s"}, {"measurement": "CFT (clot formation time)", "setting": "[8]", "result": 255, "unit": "s"}, {"measurement": "CT (clotting time)", "setting": "[8]", "result": 255, "unit": "s"}, {"measurement": "CFT (clot formation time)", "setting": "[9]", "result": 61, "unit": "s"}, {"measurement": "CT (clotting time)", "setting": "[9]", "result": 144, "unit": "s"}, {"measurement": "CFT (clot formation time)", "setting": "[10]", "result": "No CFT"}, {"measurement": "CT (clotting time)", "setting": "[10]", "result": "No CT"}, {"measurement": "CFT (clot formation time)", "setting": "[11]", "result": 69, "unit": "s"}, {"measurement": "CT (clotting time)", "setting": "[11]", "result": 193, "unit": "s"}, {"measurement": "CFT (clot formation time)", "setting": "[12]", "result": "No CFT"}, {"measurement": "CT (clotting time)", "setting": "[12]", "result": "No CT"}, {"measurement": "blood clotting time", "setting": "Ex11, TP 16.6 μg/mL+Ca+CTI+PKSI-527, heparan sulfate 20 or 30 μg/mL, rTM 50 nM", "result": "≥ 1", "unit": "h"}, {"measurement": "CFT (clot formation time)", "setting": "[13]", "result": 76, "unit": "s"}, {"measurement": "CT (clotting time)", "setting": "[13]", "result": 65, "unit": "s"}, {"measurement": "CFT (clot formation time)", "setting": "[14]", "result": 69, "unit": "s"}, {"measurement": "CT (clotting time)", "setting": "[14]", "result": 96, "unit": "s"}, {"measurement": "CFT (clot formation time)", "setting": "[15]", "result": 248, "unit": "s"}, {"measurement": "CT (clotting time)", "setting": "[15]", "result": 837, "unit": "s"}, {"measurement": "CFT (clot formation time)", "setting": "[16]", "result": 1484, "unit": "s"}, {"measurement": "CT (clotting time)", "setting": "[16]", "result": 1355, "unit": "s"}, {"measurement": "CFT (clot formation time)", "setting": "[17]", "result": 182, "unit": "s"}, {"measurement": "CT (clotting time)", "setting": "[17]", "result": 572, "unit": "s"}, {"measurement": "CFT (clot formation time)", "setting": "[18]", "result": 240, "unit": "s"}, {"measurement": "CT (clotting time)", "setting": "[18]", "result": 797, "unit": "s"}, {"measurement": "CFT (clot formation time)", "setting": "[19]", "result": 224, "unit": "s"}, {"measurement": "CT (clotting time)", "setting": "[19]", "result": 686, "unit": "s"}, {"measurement": "CFT (clot formation time)", "setting": "[20]", "result": 215, "unit": "s"}, {"measurement": "CT (clotting time)", "setting": "[20]", "result": 829, "unit": "s"}, {"measurement": "CFT (clot formation time)", "setting": "[21]", "result": 171, "unit": "s"}, {"measurement": "CT (clotting time)", "setting": "[21]", "result": 688, "unit": "s"}, {"measurement": "CFT (clot formation time)", "setting": "[22]", "result": 290, "unit": "s"}, {"measurement": "CT (clotting time)", "setting": "[22]", "result": 802, "unit": "s"}, {"measurement": "CFT (clot formation time)", "setting": "[23]", "result": 206, "unit": "s"}, {"measurement": "CT (clotting time)", "setting": "[23]", "result": 762, "unit": "s"}, {"measurement": "CFT (clot formation time)", "setting": "[24]", "result": 733, "unit": "s"}, {"measurement": "CT (clotting time)", "setting": "[24]", "result": 1360, "unit": "s"}, {"measurement": "CFT (clot formation time)", "setting": "[25]", "result": 248, "unit": "s"}, {"measurement": "CT (clotting time)", "setting": "[25]", "result": 837, "unit": "s"}, {"measurement": "CFT (clot formation time)", "setting": "[26]", "result": 660, "unit": "s"}, {"measurement": "CT (clotting time)", "setting": "[26]", "result": 1266, "unit": "s"}, {"measurement": "CFT (clot formation time)", "setting": "[27]", "result": 182, "unit": "s"}, {"measurement": "CT (clotting time)", "setting": "[27]", "result": 572, "unit": "s"}, {"measurement": "CFT (clot formation time)", "setting": "[28]", "result": 230, "unit": "s"}, {"measurement": "CT (clotting time)", "setting": "[28]", "result": 711, "unit": "s"}, {"measurement": "CFT (clot formation time)", "setting": "[29]", "result": 224, "unit": "s"}, {"measurement": "CT (clotting time)", "setting": "[29]", "result": 686, "unit": "s"}, {"measurement": "CFT (clot formation time)", "setting": "Ex15, TP 0.033 μg/mL+Ca+CTI+PKSI-527, heparan sulfate 0.2 μg/mL, rTM 5 nM", "result": 209, "unit": "s"}]}]}
